Like-named read-outs stand apart in the source and are kept apart here.

Here are results for five compounds from patent US7968080B2, “Somatostatin analogs with inhibitory activity to growth hormone release” (The Regents of the University of California, priority 2003, dated 2011).

Assay [1] concerns the target SST1 (Homo sapiens, UniProt P30872). Kind of assay: Binding affinities of SS-14, Sandostatin and RC-121 (Table 1). The following applies: read-out: Ki ± SEM, SST1.
Assay [2] deals with SST4 (Homo sapiens, UniProt P31391). Described as above. The note with it: read-out: Ki ± SEM, SST4.
Sequence of SST4 (P31391 whole entry, species assumed): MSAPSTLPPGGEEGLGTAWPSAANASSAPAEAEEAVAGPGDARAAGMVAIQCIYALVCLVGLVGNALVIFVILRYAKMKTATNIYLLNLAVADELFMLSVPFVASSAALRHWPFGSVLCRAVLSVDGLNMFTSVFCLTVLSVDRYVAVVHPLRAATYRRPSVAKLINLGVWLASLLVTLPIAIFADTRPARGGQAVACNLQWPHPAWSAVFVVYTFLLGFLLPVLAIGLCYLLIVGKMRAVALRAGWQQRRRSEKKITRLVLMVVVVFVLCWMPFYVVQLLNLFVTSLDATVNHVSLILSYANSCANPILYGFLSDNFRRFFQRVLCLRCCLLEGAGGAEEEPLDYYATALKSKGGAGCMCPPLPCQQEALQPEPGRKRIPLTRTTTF
Assay [3] deals with SST3 (Homo sapiens, UniProt P32745). Described as above. The note with it: read-out: Ki ± SEM, SST3.
Sequence of SST3 (P32745 whole entry, species assumed): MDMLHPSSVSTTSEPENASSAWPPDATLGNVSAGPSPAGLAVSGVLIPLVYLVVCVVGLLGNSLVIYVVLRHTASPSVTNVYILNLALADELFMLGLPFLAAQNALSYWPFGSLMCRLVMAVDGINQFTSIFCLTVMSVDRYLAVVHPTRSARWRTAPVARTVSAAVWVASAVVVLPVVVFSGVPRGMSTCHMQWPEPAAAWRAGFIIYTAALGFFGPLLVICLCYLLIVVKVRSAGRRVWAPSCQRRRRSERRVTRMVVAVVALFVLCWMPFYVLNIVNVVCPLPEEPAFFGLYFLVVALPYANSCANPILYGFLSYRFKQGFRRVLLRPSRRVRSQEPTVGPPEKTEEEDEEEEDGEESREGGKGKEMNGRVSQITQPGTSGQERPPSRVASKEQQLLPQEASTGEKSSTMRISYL
Assay [4] concerns SST 1-5. The note with it: background statement; cited from earlier work.
For assay [5], the target named is hsst2 (Homo sapiens, UniProt P30874). Kind of assay: Binding of beta-MeTrp analogs of L-363,301 to hsst2.
Sequence of hsst2 (P30874 whole entry): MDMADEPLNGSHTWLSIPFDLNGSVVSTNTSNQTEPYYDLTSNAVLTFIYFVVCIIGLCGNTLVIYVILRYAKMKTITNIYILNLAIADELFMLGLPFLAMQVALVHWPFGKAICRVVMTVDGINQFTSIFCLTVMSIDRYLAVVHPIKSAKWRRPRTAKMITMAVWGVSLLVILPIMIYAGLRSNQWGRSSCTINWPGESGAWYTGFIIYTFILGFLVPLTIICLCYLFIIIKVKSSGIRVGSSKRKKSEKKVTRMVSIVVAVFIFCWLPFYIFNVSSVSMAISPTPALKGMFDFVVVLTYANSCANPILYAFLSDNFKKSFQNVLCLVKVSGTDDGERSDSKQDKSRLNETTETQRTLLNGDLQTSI
For assay [6], the system named is somatostatin receptors hsst1-5. Kind of assay: Binding potencies and selectivities at somatostatin receptors hsst1-5. More on the design: species or system human.

Sequence of SST1 (P30872 whole entry, species assumed): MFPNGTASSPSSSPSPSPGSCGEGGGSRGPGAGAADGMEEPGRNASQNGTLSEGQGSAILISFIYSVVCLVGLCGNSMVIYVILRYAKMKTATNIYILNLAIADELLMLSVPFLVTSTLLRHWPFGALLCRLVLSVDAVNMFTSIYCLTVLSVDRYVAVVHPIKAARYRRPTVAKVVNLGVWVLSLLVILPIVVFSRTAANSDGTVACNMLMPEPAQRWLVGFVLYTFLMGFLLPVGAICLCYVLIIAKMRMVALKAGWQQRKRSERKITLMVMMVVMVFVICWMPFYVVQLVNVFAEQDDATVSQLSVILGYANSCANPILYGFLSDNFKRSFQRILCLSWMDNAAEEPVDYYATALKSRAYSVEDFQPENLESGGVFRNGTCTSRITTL

For the compound `CC(C)[C@@H]1NC(=O)[C@H](CCCCN)NC(=O)[C@@H](Cc2c[nH]c3ccccc23)NC(=O)[C@H](Cc2ccc(O)cc2)NC(=O)[C@@H](NC(=O)[C@H](N)Cc2ccccc2)CSSC[C@@H](C(=O)N[C@H](C(N)=O)[C@@H](C)O)NC1=O` [RC-121, D-Phe-c[Cys-Tyr-D-Trp-Lys-Val-Cys]-Thr-NH2], the Ki in assay [1], in assay [2] and in assay [3] was > 1000 nM in each case.
For the compound `C[C@@H](O)[C@@H]1NC(=O)[C@H](CCCCN)NC(=O)[C@@H](Cc2c[nH]c3ccccc23)NC(=O)[C@H](Cc2ccccc2)NC(=O)[C@@H](NC(=O)[C@H](N)Cc2ccccc2)CSSC[C@@H](C(=O)N[C@H](CO)[C@@H](C)O)NC1=O` [Sandostatin, D-Phe-c[Cys-Phe-D-Trp-Lys-Thr-Cys]-Thr-ol], the “interaction with SS receptor subtypes (background)” value in assay [4] is “interact significantly with three of the receptor subtypes, i.e. SST2, SST3 and SST5”.
As for “SS-28: N-terminally extended version of SS-14 that has an additional 14 amino acid residues”, the “interaction with SS receptor subtypes (background)” value in assay [4] was “high affinity”.
As to c[Pro-Phe-(2R,3R)-β-MeTrp-Lys-Thr-Phe], in assay [5], the “binding to receptor hsst2” value is “nanomolar range”. Also, in assay [6], the “potency relative to parent peptide L-363,301” value was “much less active” and the “selectivity among hsst1-5” value was “highly selective for hsst2”.
On to c[Pro-Phe-(2R,3S)-β-MeTrp-Lys-Thr-Phe], for which the “binding to receptor hsst2” value in assay [5] was “nanomolar range”; in assay [5] (listed as (2R,3S)-β-MeTrp diastereomer), “bind very well to hsst2”. Besides, the “potency relative to parent peptide L-363,301” value in assay [6] is on record as “more potent than the parent peptide”. For the same compound, the “selectivity among hsst1-5” value in assay [6] is “highly selective for hsst2”.
